Calls of active or inactive are those of the source. No cut-off for these calls is given here.
What was measured:
[1] = tested on: MDA-MB-231; assay: Antimigratory activity in human MDA-MB-231 cells assessed as inhibition of cell motility after 24 hrs by microscopic analysis; assay type: functional, cell-based; settings: MDA-MB-231, 24 h
[2] = tested on: MDA-MB-231; assay: Antimigratory activity in human MDA-MB-231 cells assessed as wound diameter at 5 uM measured after 24 hrs by microscopic analysis; assay type: functional, cell-based
[3] = tested on: Chorioallantoic membrane; assay: Antiangiogenic activity in Leghorn chicken fertilized egg chorioallantoic membrane assessed as reduction in number of blood vessels at 4 ug measured after 4 days by microscopic analysis relative to control; assay type: functional, tissue-based; design: scale not given: the % may be the effect or the level left; settings: Gallus gallus
[4] = tested on: MDA-MB-468; assay: Induction of morphological changes in human MDA-MB-468 cells assessed as mesenchymal-epithelial transition at 10 uM by inverted microscopic analysis; assay type: functional, cell-based
[5] = tested on: MDA-MB-231; assay: Inhibition of tumor growth in human MDA-MB-231 cells xenografted in nude mouse; assay type: functional
[6] = tested on: MDA-MB-468; assay: Induction of apoptosis in human MDA-MB-468 cells assessed as early apoptotic cells at 8 uM measured after 24 hrs by AnnexinV/7-AAD staining based flow cytometric analysis (reference value: 3.45%); assay type: functional
[7] = Selectivity index, ratio of LD50 for E6/E7 immortalized human HNME cells to IC50 for human MCF7 cells
[8] = tested on: MDA-MB-468; assay: Induction of apoptosis in human MDA-MB-468 cells assessed as early apoptotic cells at 8 uM measured after 48 hrs by AnnexinV/7-AAD staining based flow cytometric analysis (reference value: 4.15%); assay type: functional
[9] = tested on: MDA-MB-231; assay: Antitumor activity against human MDA-MB-231 cells xenografted in athymic nude mouse assessed as the reduction in tumor weight at 10 mg/kg, ip dosed 3 times per week for 45 days (reference value: 1.58 +/- 0.283 g); assay type: functional
[10] = tested on: MDA-MB-468; assay: Cell cycle arrest in human MDA-MB-468 cells assessed as accumulation at G2/M phase at 5 uM measured after 48 hrs by propidium iodide staining-based flow cytometric analysis relative to control; assay type: functional
[11] = tested on: MDA-MB-231; assay: Antiproliferative activity against human MDA-MB-231 cells assessed as inhibition of cell growth measured after 48 hrs by microplate reader analysis; assay type: functional, cell-based; settings: MDA-MB-231, 48 h
[12] = Toxicity in athymic nude mouse xenografted with human MDA-MB-231 cells assessed as change in food intake at 10 mg/kg, ip administered measured for 14 days; assay type: organism-based; settings: in vivo, 336 h
[13] = tested on: MCF7; assay: Antiinvasive activity in human MCF7 cells assessed as reduction in 10% FBS-induced cell invasion at 5 uM by crystal violet staining based matrigel assay relative to control; assay type: functional
[14] = Selectivity index, ratio of LD50 for E6/E7 immortalized human HNME cells to IC50 for human MDA-MB-231 cells
[15] = tested on: MCF7; assay: Up regulation of E-cadherin level in human MCF7 cells up to 10 uM by Western blot analysis; assay type: functional, cell-based
[16] = tested on: MDA-MB-231; assay: Induction of morphological changes in human MDA-MB-231 cells assessed as mesenchymal-epithelial transition at 10 uM by inverted microscopic analysis; assay type: functional, cell-based
[17] = tested on: MDA-MB-231; assay: Antitumor activity against human MDA-MB-231 cells xenografted in athymic nude mouse assessed as time delay in tumor growth at 10 mg/kg, ip dosed 5 times per week preincubated for 15 days measured after 30 days relative to control; assay type: functional, organism-based
[18] = tested on: MDA-MB-231; assay: Cell cycle arrest in human MDA-MB-231 cells assessed as accumulation at G2/M phase at 5 uM measured after 48 hrs by propidium iodide staining-based flow cytometric analysis relative to control; assay type: functional
[19] = tested on: MCF7; assay: Up regulation of pan-cadherin level in human MCF7 cells up to 10 uM by Western blot analysis; assay type: functional, cell-based
[20] = tested on: MCF7; assay: Antiproliferative activity against human MCF7 cells assessed as inhibition of cell growth measured after 48 hrs by microplate reader analysis; assay type: functional, cell-based; settings: MCF7, 48 h
[21] = tested on: MDA-MB-231; assay: Down regulation of FAK level in human MDA-MB-231 cells up to 10 uM by Western blot analysis; assay type: functional, cell-based
[22] = tested on: MDA-MB-231; assay: Up regulation of E-cadherin level in human MDA-MB-231 cells up to 10 uM by Western blot analysis; assay type: functional, cell-based
[23] = tested on: MDA-MB-468; assay: Antiproliferative activity against human MDA-MB-468 cells assessed as inhibition of cell growth measured after 48 hrs by microplate reader analysis; assay type: functional, cell-based; settings: MDA-MB-468, 48 h
[24] = tested on: MDA-MB-231; assay: Antitumor activity against human MDA-MB-231 cells xenografted in athymic nude mouse assessed as the reduction in tumor volume at 10 mg/kg, ip dosed 3 times per week for 45 days (reference value: 1350 mm3); assay type: functional
[25] = tested on: MDA-MB-468; assay: Induction of apoptosis in human MDA-MB-468 cells assessed as necrotic cells at 8 uM measured after 48 hrs by AnnexinV/7-AAD staining based flow cytometric analysis (reference value: 0.51%); assay type: functional
[26] = tested on: MDA-MB-468; assay: Antiinvasive activity in human MDA-MB-468 cells assessed as reduction in 10% FBS-induced cell invasion at 5 uM by crystal violet staining based matrigel assay relative to control; assay type: functional
[27] = tested on: MDA-MB-468; assay: Induction of apoptosis in human MDA-MB-468 cells assessed as late apoptotic cells at 8 uM measured after 24 hrs by AnnexinV/7-AAD staining based flow cytometric analysis (reference value: 1.86%); assay type: functional
[28] = tested on: MDA-MB-468; assay: Induction of apoptosis in human MDA-MB-468 cells assessed as viable cells at 8 uM measured after 24 hrs by AnnexinV/7-AAD staining based flow cytometric analysis (reference value: 94.1%); assay type: functional; settings: MDA-MB-468, 24 h, read-out: Activity
[29] = tested on: MDA-MB-231; assay: Up regulation of pan-cadherin level in human MDA-MB-231 cells up to 10 uM by Western blot analysis; assay type: functional, cell-based
[30] = tested on: MDA-MB-231; assay: Antitumor activity against human MDA-MB-231 cells xenografted in athymic nude mouse assessed as the inhibition of tumor growth at 10 mg/kg, ip dosed 3 times per week for 45 days relative to control; assay type: functional; settings: MDA-MB-231, ip, 1080 h
[31] = tested on: MDA-MB-468; assay: Induction of apoptosis in human MDA-MB-468 cells assessed as late apoptotic cells at 8 uM measured after 48 hrs by AnnexinV/7-AAD staining based flow cytometric analysis (reference value: 2.83%); assay type: functional
[32] = tested on: MDA-MB-468; assay: Induction of apoptosis in human MDA-MB-468 cells assessed as increase in BAX/Bcl2 expression ratio upto 10 uM measured after 48 hrs by western blot analysis; assay type: functional, cell-based
[33] = tested on: MCF7; assay: Growth inhibition in human MCF7 cells at 10 uM after 48 hrs by MTT assay; assay type: functional, cell-based
[34] = Toxicity in athymic nude mouse xenografted with human MDA-MB-231 cells assessed as change in body weight at 10 mg/kg, ip administered for 14 days; assay type: organism-based; settings: in vivo, 336 h
[35] = tested on: MDA-MB-231; assay: Inhibition of anchorage-independent colony formation in human MDA-MB-231 cells at 5 uM measured upto 21 days by soft agar colony formation assay; assay type: functional, cell-based
[36] = tested on: MCF7; assay: Inhibition of anchorage-independent colony formation in human MCF7 cells at 5 uM measured upto 21 days by soft agar colony formation assay; assay type: functional, cell-based
[37] = tested on: MDA-MB-231; assay: Growth inhibition in human MDA-MB-231 cells at 10 uM after 48 hrs by MTT assay; assay type: functional, cell-based
[38] = Toxicity in athymic nude mouse xenografted with human MDA-MB-231 cells assessed as effect on survival rate at 10 mg/kg, ip dosed 5 times per week preincubated for 15 days measured after 30 days; assay type: organism-based; settings: in vivo, 720 h
[39] = tested on: MCF7; assay: Antimigratory activity in human MCF7 cells assessed as inhibition of cell motility after 24 hrs by microscopic analysis; assay type: functional, cell-based; settings: MCF7, 24 h
[40] = tested on: MCF7; assay: Induction of morphological changes in human MCF7 cells assessed as mesenchymal-epithelial transition at 10 uM by inverted microscopic analysis; assay type: functional, cell-based
[41] = tested on: MDA-MB-231; assay: Antimigratory activity in human MDA-MB-231 cells assessed as wound diameter measured after 24 hrs by microscopic analysis (reference value: 29.5 +/- 1.95%); assay type: functional
[42] = Toxicity in athymic nude mouse xenografted with human MDA-MB-231 cells assessed as behavioral change at 10 mg/kg, ip administered for 14 days; assay type: organism-based; settings: in vivo, 336 h
[43] = Cytotoxicity against E6/E7 immortalized human HNME cells assessed as inhibition of cell growth measured after 48 hrs by microplate reader analysis; assay type: cell-based; settings: read-out: LD50
[44] = tested on: MDA-MB-468; assay: Induction of apoptosis in human MDA-MB-468 cells assessed as necrotic cells at 8 uM measured after 24 hrs by AnnexinV/7-AAD staining based flow cytometric analysis (reference value: 0.62%); assay type: functional
[45] = tested on: MDA-MB-468; assay: Inhibition of anchorage-independent colony formation in human MDA-MB-468 cells at 5 uM measured upto 21 days by soft agar colony formation assay; assay type: functional, cell-based
[46] = tested on: MCF7; assay: Induction of apoptosis in human MCF7 cells assessed as increase in BAX/Bcl2 expression ratio upto 10 uM measured after 48 hrs by western blot analysis; assay type: functional, cell-based
[47] = tested on: MDA-MB-468; assay: Induction of apoptosis in human MDA-MB-468 cells assessed as viable cells at 8 uM measured after 48 hrs by AnnexinV/7-AAD staining based flow cytometric analysis (reference value: 92.5%); assay type: functional; settings: MDA-MB-468, 48 h, read-out: Activity
[48] = tested on: MDA-MB-231; assay: Antiinvasive activity in human MDA-MB-231 cells assessed as reduction in 10% FBS-induced cell invasion at 5 uM by crystal violet staining based matrigel assay relative to control; assay type: functional; design: scale not given: the % may be the effect or the level left
[49] = Selectivity index, ratio of LD50 for E6/E7 immortalized human HNME cells to IC50 for human MDA-MB-468 cells

With `COc1cccc(C(=O)/C=C/c2ccc(N3CCCC3)cc2)c1` the IC50 [1] was 1990 nM and the Activity [2] was “Active”.
In the case of `COc1cccc(C(=O)/C=C/c2ccc(N(CCCl)CCCl)cc2)c1`, the Activity [3] is reported as 60.2%, the Activity [4] is reported as “Active” and the “inhibition (INH)” value [5] is reported as 57%. The Activity [6] was 9.04%, the “Ratio LD50/IC50” value [7] was 3.31 and the Activity [8] was 28%. It also gave an IC50 [1] of 3000 nM, an Activity [9] of 0.88 g and an Activity [10] of 66.45%. The IC50 [11] was 8 µM, the Activity [12] was “Non-Toxic” and the Activity [13] was “Active”. For the same compound, the “Ratio LD50/IC50” value [14] was 2.66, the Activity [15] was “Active” and the Activity [16] was “Active”. The Activity [17] was “Active”, the Activity [2] was “Active” and the Activity [18] was 47.27%. The Activity [19] was “Active”, the IC50 [20] was 6.43 µM and the Activity [21] was “Active”. For the same compound, the Activity [22] was “Active”, the IC50 [23] was 7.3 µM and the Activity [24] was 487.26 mm3. For the same compound, the Activity [25] was 3.63%, the Activity [26] was “Active” and the Activity [27] was 2.13%. For the same compound, the viability at 8 µM [28] was 88.2%, the Activity [29] was “Active” and the inhibition in vivo at 10 mg/kg [30] was 46.4%. For the same compound, the Activity [31] was 11.1%, the Activity [32] was “Active” and the “growth inhibition (GI)” value [33] was “Active”. The Activity [34] was “Non-Toxic”, the inhibition [35] was “Active” and the “colony formation inhibition (activity call)” value [36] was “Active”. The “growth inhibition (GI)” value [37] was “Active”, the Activity [38] was “Non-Toxic” and the IC50 [39] was 2440 nM. The Activity [40] was “Active”, the “inhibition (INH)” value [41] was 67.89% and the Activity [42] was “Non-Toxic”. For the same compound, the CC50 at 48 h [43] was 21.3 µM, the Activity [44] was 0.61% and the “colony formation inhibition (active/inactive)” value [45] was “Active”. The Activity [46] was “Active”, the viability at 8 µM [47] was 57.3% and the Activity [48] was 80%. For the same compound, the “Ratio LD50/IC50” value [49] was 2.92.
In the case of `O=C(/C=C/c1ccc(N2CCCC2)cc1)c1ccc2c(c1)OCO2`, the IC50 [1] is reported as 5710 nM and the Activity [2] is reported as “Active”.
In the case of `COc1cc2c(c(OC)c1OC)-c1ccc(OC)c(=O)cc1[C@@H](NC(C)=O)CC2`, the Activity [2] is reported as “Active”, the inhibition [35] is reported as “Active” and the inhibition [36] is reported as “Active”. The “colony formation inhibition (active/inactive)” value [45] was “Active”.

From ChEMBL document CHEMBL4334533, “Design, synthesis, and validation of novel nitrogen-based chalcone analogs against triple negative breast cancer” (Eur J Med Chem, 2020)
